Reference: PubChem BioAssay (NCI)
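Exposure lasted 48 hours, with cells grown in 96-well plates and compounds tested at five concentrations. At the GI50, growth is halved. TGI denotes the concentration required for complete inhibition of growth.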

Assays:
Experiment in all cases: inhibition of tumour cell growth, NCI panel, 48 h
[1] = system: 786-0 renal
[2] = system: A498 renal
[3] = system: A549 NSCLC
[4] = system: ACHN renal
[5] = system: BT-549 breast
[6] = system: CAKI-1 renal
[7] = system: CCRF-CEM leukemia
[8] = system: COLO 205 colon
[9] = system: DU-145 prostate
[10] = system: EKVX NSCLC
[11] = system: HCC-2998 colon
[12] = system: HCT-116 colon
[13] = system: HCT-15 colon
[14] = system: HL-60(TB) leukemia
[15] = system: HOP-62 NSCLC
[16] = system: HOP-92 NSCLC
[17] = system: HS 578T breast
[18] = system: HT29 colon
[19] = system: IGROV1 ovarian
[20] = system: K-562 leukemia
[21] = system: KM12 colon
[22] = system: LOX IMVI melanoma
[23] = system: M14 melanoma
[24] = system: MALME-3M melanoma
[25] = system: MCF7 breast
[26] = system: MDA-MB-231 breast
[27] = system: MDA-MB-435
[28] = system: MOLT-4 leukemia
[29] = system: NCI-H226 lung
[30] = system: NCI-H23 lung
[31] = system: NCI-H460 lung
[32] = system: NCI-H522 lung
[33] = system: NCI/ADR-RES ovarian
[34] = system: OVCAR-3 ovarian
[35] = system: OVCAR-4 ovarian
[36] = system: OVCAR-5 ovarian
[37] = system: OVCAR-8 ovarian
[38] = system: PC-3 prostate
[39] = system: RPMI-8226 leukemia
[40] = system: RXF 393 renal
[41] = system: SF-268 CNS
[42] = system: SF-295 CNS
[43] = system: SF-539 CNS
[44] = system: SK-MEL-2 melanoma
[45] = system: SK-MEL-28 melanoma
[46] = system: SK-MEL-5 melanoma
[47] = system: SK-OV-3 ovarian
[48] = system: SN12C renal
[49] = system: SNB-19 CNS
[50] = system: SNB-75 CNS
[51] = system: SR leukemia
[52] = system: SW-620 colon
[53] = system: T-47D breast
[54] = system: TK-10 renal
[55] = system: U251 CNS
[56] = system: UACC-257 melanoma
[57] = system: UACC-62 melanoma
[58] = system: UO-31 renal

SMILES: CCOCCCn1c2c(c3c(O)cccc31)C(=O)c1ccccc1-2
- GI50 [1]: 22 µM
- TGI [1]: 51.9 µM
- GI50 [2]: 21.7 µM
- TGI [2]: 52.5 µM
- GI50 [3]: 29.2 µM
- TGI [3]: > 100 µM
- GI50 [4]: 20.6 µM
- TGI [4]: 55 µM
- GI50 [5]: 29 µM
- TGI [5]: 87.8 µM
- GI50 [6]: 21.6 µM
- TGI [6]: 64.1 µM
- GI50 [7]: 25.1 µM
- TGI [7]: 88.6 µM
- GI50 [8]: 16 µM
- TGI [8]: 33.3 µM
- GI50 [9]: 33.3 µM
- TGI [9]: > 100 µM
- GI50 [10]: 24.3 µM
- TGI [10]: 79 µM
- GI50 [11]: 22.1 µM
- TGI [11]: 64.3 µM
- GI50 [12]: 16.6 µM
- TGI [12]: 33.5 µM
- GI50 [13]: 26.8 µM
- TGI [13]: 65.6 µM
- GI50 [14]: 13.2 µM
- TGI [14]: 31.4 µM
- GI50 [15]: 17.8 µM
- TGI [15]: 48 µM
- GI50 [16]: 16.8 µM
- TGI [16]: 43.3 µM
- GI50 [17]: 32.8 µM
- TGI [17]: 82.3 µM
- GI50 [18]: 30.2 µM
- TGI [18]: > 100 µM
- GI50 [19]: 17.1 µM
- TGI [19]: 48.7 µM
- GI50 [20]: 18.6 µM
- TGI [20]: 55.7 µM
- GI50 [21]: 16.6 µM
- TGI [21]: 39.4 µM
- GI50 [22]: 17.2 µM
- TGI [22]: 32.7 µM
- GI50 [23]: 16.2 µM
- TGI [23]: 31.5 µM
- GI50 [24]: 14.7 µM
- TGI [24]: 37.1 µM
- GI50 [25]: 32.6 µM
- TGI [25]: > 100 µM
- GI50 [26]: 12.8 µM
- TGI [26]: 35.3 µM
- GI50 [27]: 18.4 µM
- TGI [27]: 46.5 µM
- GI50 [28]: 13.7 µM
- TGI [28]: 32.7 µM
- GI50 [29]: 24.1 µM
- TGI [29]: 81.6 µM
- GI50 [30]: 19.1 µM
- TGI [30]: 53.2 µM
- GI50 [31]: 21.6 µM
- TGI [31]: 63.9 µM
- GI50 [32]: 14 µM
- TGI [32]: 35.7 µM
- GI50 [33]: 20.8 µM
- TGI [33]: 56.5 µM
- GI50 [34]: 21.9 µM
- TGI [34]: 55.3 µM
- GI50 [35]: 21.3 µM
- TGI [35]: 69.3 µM
- GI50 [36]: 17.8 µM
- TGI [36]: 39.9 µM
- GI50 [37]: 31.1 µM
- TGI [37]: > 100 µM
- GI50 [38]: 14.7 µM
- TGI [38]: 36.7 µM
- GI50 [39]: 16.4 µM
- TGI [39]: 43.9 µM
- GI50 [40]: 30.3 µM
- TGI [40]: 82.1 µM
- GI50 [41]: 18.1 µM
- TGI [41]: 50.3 µM
- GI50 [42]: 21.4 µM
- TGI [42]: 55.3 µM
- GI50 [43]: 24.7 µM
- TGI [43]: 63.3 µM
- GI50 [44]: 20.3 µM
- TGI [44]: 38.5 µM
- GI50 [45]: 22.5 µM
- TGI [45]: 46.3 µM
- GI50 [46]: 15.8 µM
- TGI [46]: 29.8 µM
- GI50 [47]: 24.8 µM
- TGI [47]: 72.4 µM
- GI50 [48]: 11.5 µM
- TGI [48]: 25.5 µM
- GI50 [49]: 26.7 µM
- TGI [49]: > 100 µM
- GI50 [50]: 20.5 µM
- TGI [50]: 50.3 µM
- GI50 [51]: 10.6 µM
- TGI [51]: 27.7 µM
- GI50 [52]: 28.4 µM
- TGI [52]: > 100 µM
- GI50 [53]: 13.9 µM
- TGI [53]: 46.5 µM
- GI50 [54]: 23.4 µM
- TGI [54]: 76.2 µM
- GI50 [55]: 23.7 µM
- TGI [55]: 62.5 µM
- GI50 [56]: 27.8 µM
- TGI [56]: 68.6 µM
- GI50 [57]: 14.5 µM
- TGI [57]: 30.1 µM
- GI50 [58]: 15.9 µM
- TGI [58]: 38.4 µM

SMILES: COC(=O)[C@H](Cc1cnc[nH]1)NC(=O)[C@@H](NC(=O)Nc1cc(C(F)(F)F)cc(C(F)(F)F)c1)C(C)C
- GI50 [1]: 18.9 µM
- TGI [1]: 38.6 µM
- GI50 [2]: 13 µM
- TGI [2]: 27.3 µM
- GI50 [3]: 16.7 µM
- TGI [3]: 32.7 µM
- GI50 [4]: 17.2 µM
- TGI [4]: 33.4 µM
- GI50 [5]: 16.9 µM
- TGI [5]: 33.3 µM
- GI50 [6]: 15.9 µM
- TGI [6]: 32.7 µM
- GI50 [7]: 14.7 µM
- TGI [7]: 35.6 µM
- GI50 [8]: 15.2 µM
- TGI [8]: 29.4 µM
- GI50 [9]: 17.8 µM
- TGI [9]: 32.7 µM
- GI50 [11]: 15.9 µM
- TGI [11]: 30.7 µM
- GI50 [12]: 18.9 µM
- TGI [12]: 40.7 µM
- GI50 [13]: 18.2 µM
- TGI [13]: 36 µM
- GI50 [14]: 20.2 µM
- TGI [14]: 39.3 µM
- GI50 [15]: 19 µM
- TGI [15]: 33.7 µM
- GI50 [16]: 5.33 µM
- GI50 [17]: 16.8 µM
- TGI [17]: 47.6 µM
- GI50 [18]: 18.1 µM
- TGI [18]: 33.8 µM
- GI50 [19]: 18.1 µM
- TGI [19]: 36.1 µM
- GI50 [20]: 19.2 µM
- TGI [20]: 40.5 µM
- GI50 [21]: 18.4 µM
- TGI [21]: 35.3 µM
- GI50 [23]: 16.8 µM
- TGI [23]: 34 µM
- GI50 [24]: 16.9 µM
- TGI [24]: 32.2 µM
- GI50 [25]: 14.4 µM
- TGI [25]: 29.6 µM
- GI50 [26]: 12.4 µM
- TGI [26]: 25.3 µM
- GI50 [27]: 17.3 µM
- TGI [27]: 34.3 µM
- GI50 [28]: 12.5 µM
- TGI [28]: 32.2 µM
- GI50 [29]: 16.8 µM
- TGI [29]: 36 µM
- GI50 [30]: 16.4 µM
- TGI [30]: 31.7 µM
- GI50 [31]: 18.7 µM
- TGI [31]: 37.3 µM
- GI50 [32]: 13.1 µM
- TGI [32]: 27 µM
- GI50 [33]: 33.7 µM
- TGI [33]: > 100 µM
- GI50 [34]: 14.7 µM
- TGI [34]: 28.3 µM
- GI50 [35]: 15 µM
- TGI [35]: 29 µM
- GI50 [36]: 16.5 µM
- TGI [36]: 31.1 µM
- GI50 [37]: 16.5 µM
- TGI [37]: 31.6 µM
- GI50 [38]: 14.5 µM
- TGI [38]: 28.4 µM
- GI50 [39]: 16.1 µM
- TGI [39]: 38.9 µM
- GI50 [40]: 13.6 µM
- TGI [40]: 27.5 µM
- GI50 [41]: 15.2 µM
- TGI [41]: 31.1 µM
- GI50 [42]: 16.1 µM
- TGI [42]: 31.8 µM
- GI50 [43]: 17 µM
- TGI [43]: 32.3 µM
- GI50 [45]: 15.7 µM
- TGI [45]: 29.2 µM
- GI50 [46]: 17.1 µM
- TGI [46]: 31.1 µM
- GI50 [47]: 18.5 µM
- TGI [47]: 32.5 µM
- GI50 [48]: 14.5 µM
- TGI [48]: 28 µM
- GI50 [49]: 10.9 µM
- TGI [49]: 23.2 µM
- GI50 [50]: 13.5 µM
- TGI [50]: 27 µM
- GI50 [51]: 13.2 µM
- TGI [51]: 32.8 µM
- GI50 [52]: 18 µM
- TGI [52]: 35.5 µM
- GI50 [53]: 12.4 µM
- TGI [53]: 28 µM
- GI50 [54]: 16.6 µM
- TGI [54]: 30.7 µM
- GI50 [56]: 15.7 µM
- TGI [56]: 29.9 µM
- GI50 [57]: 13.9 µM
- TGI [57]: 27.2 µM
- GI50 [58]: 15 µM
- TGI [58]: 29.5 µM
